Measured values published in patent US4604234A, “Protein having cell growth stimulating action, composition thereof and method for producing the same” (priority 1983, dated 1986).
Where two headings read alike, the source gives them in different places.

Experiments:
BHK-21 cells [1] = test: Inhibitory effects of steroids on BHK-21 cells; assay type: cell-based, hamster; settings: for activity at 0.5 µg/mL / activity at 1 µg/mL / activity at 5 µg/mL / activity at 25 µg/mL / activity at 50 µg/mL: Mesocricetus auratus, read-out: % of control cell numbers
BHK-21 cells [2] = test: Effects of WHS on BHK-21 cells in the presence of steroids; assay type: cell-based, hamster; settings: steroid 50 μg/ml alone
[3] = tested on: human cutaneous fibroblasts; settings: cited from earlier work; for growth inhibition of incubated human cutaneous fibroblasts: listed in descending order of inhibition
mouse fibroblasts = settings: with protoplasmic vacuolation; cited from earlier work
[4] = BHK-21, 48 h, 0.5 μg/ml, 2 days
[5] = BHK-21, 48 h, 1.0 μg/ml, 2 days
[6] = BHK-21, 48 h, 5.0 μg/ml, 2 days
[7] = BHK-21, 48 h, 25.0 μg/ml, 2 days
[8] = BHK-21, 48 h, 50.0 μg/ml, 2 days
[9] = BHK-21, 96 h, 0.5 μg/ml, 4 days
[10] = BHK-21, 96 h, 1.0 μg/ml, 4 days
[11] = BHK-21, 96 h, 5.0 μg/ml, 4 days
[12] = BHK-21, 96 h, 25.0 μg/ml, 4 days
[13] = BHK-21, 96 h, 50.0 μg/ml, 4 days
[14] = BHK-21, 144 h, 0.5 μg/ml, 6 days
[15] = BHK-21, 144 h, 1.0 μg/ml, 6 days
[16] = BHK-21, 144 h, 5.0 μg/ml, 6 days
[17] = BHK-21, 144 h, 25.0 μg/ml, 6 days
[18] = BHK-21, 144 h, 50.0 μg/ml, 6 days

Row | SMILES | cell numbers (BHK-21 cells [1]; 0.5 μg/ml, 2 days) | cell numbers (BHK-21 cells [1]; 0.5 μg/ml, 4 days) | cell numbers (BHK-21 cells [1]; 0.5 μg/ml, 6 days) | cell numbers (BHK-21 cells [1]; 1.0 μg/ml, 2 days) | cell numbers (BHK-21 cells [1]; 1.0 μg/ml, 4 days) | cell numbers (BHK-21 cells [1]; 1.0 μg/ml, 6 days) | cell numbers (BHK-21 cells [1]; 5.0 μg/ml, 2 days) | cell numbers (BHK-21 cells [1]; 5.0 μg/ml, 4 days) | cell numbers (BHK-21 cells [1]; 5.0 μg/ml, 6 days) | cell numbers (BHK-21 cells [1]; 25.0 μg/ml, 2 days) | cell numbers (BHK-21 cells [1]; 25.0 μg/ml, 4 days) | cell numbers (BHK-21 cells [1]; 25.0 μg/ml, 6 days) | cell numbers (BHK-21 cells [1]; 50.0 μg/ml, 2 days) | cell numbers (BHK-21 cells [1]; 50.0 μg/ml, 4 days) | cell numbers (BHK-21 cells [1]; 50.0 μg/ml, 6 days) | activity at 0.5 µg/mL (BHK-21 cells [1]; [4]) | activity at 1 µg/mL (BHK-21 cells [1]; [5]) | activity at 5 µg/mL (BHK-21 cells [1]; [6]) | activity at 25 µg/mL (BHK-21 cells [1]; [7]) | growth inhibition of incubated human cutaneous fibroblasts [3] | also measured
1 | C[C@@H]1C[C@H]2[C@@H]3CCC4=CC(=O)C=C[C@]4(C)[C@@]3(F)[C@@H](O)C[C@]2(C)[C@@]1(O)C(=O)CO [Dexamethasone, dexamethasone] | 0.92 × 10^5 cells/dish | 2.32 × 10^5 cells/dish | 2.51 × 10^5 cells/dish | 0.87 × 10^5 cells/dish | 2.31 × 10^5 cells/dish | 2.54 × 10^5 cells/dish | 0.84 × 10^5 cells/dish | 2.22 × 10^5 cells/dish | 2.57 × 10^5 cells/dish | 0.71 × 10^5 cells/dish | 1.71 × 10^5 cells/dish | 2.33 × 10^5 cells/dish | 0.62 × 10^5 cells/dish | 1.24 × 10^5 cells/dish | 1.84 × 10^5 cells/dish | 94.8% | 89.7% | 86.6% | 73.2% |  | activity at 50 µg/mL (BHK-21 cells [1]; [8]): 63.9%; activity at 0.5 µg/mL (BHK-21 cells [1]; [9]): 87.2%; activity at 1 µg/mL (BHK-21 cells [1]; [10]): 86.8%; activity at 5 µg/mL (BHK-21 cells [1]; [11]): 83.5%; activity at 25 µg/mL (BHK-21 cells [1]; [12]): 64.3%; activity at 50 µg/mL (BHK-21 cells [1]; [13]): 46.6%; activity at 0.5 µg/mL (BHK-21 cells [1]; [14]): 97.3%; activity at 1 µg/mL (BHK-21 cells [1]; [15]): 98.4%; activity at 5 µg/mL (BHK-21 cells [1]; [16]): 99.6%; activity at 25 µg/mL (BHK-21 cells [1]; [17]): 90.3%; activity at 50 µg/mL (BHK-21 cells [1]; [18]): 71.3%; cell numbers (BHK-21 cells [2]; 2nd day): 0.87 × 10^5 cells/dish; cell numbers (BHK-21 cells [2]; 4th day): 1.28 × 10^5 cells/dish
2 | C[C@]12CCC(=O)C=C1CC[C@@H]1[C@@H]2[C@@H](O)C[C@@]2(C)[C@H]1CC[C@]2(O)C(=O)CO [Hydrocortisone, hydrocortisone] | 13.0 × 10^5 cells/dish | 24.0 × 10^5 cells/dish | 25.6 × 10^5 cells/dish | 12.5 × 10^5 cells/dish | 23.8 × 10^5 cells/dish | 25.1 × 10^5 cells/dish | 12.0 × 10^5 cells/dish | 21.9 × 10^5 cells/dish | 25.2 × 10^5 cells/dish | 9.3 × 10^5 cells/dish | 17.1 × 10^5 cells/dish | 22.6 × 10^5 cells/dish | 8.2 × 10^5 cells/dish | 10.8 × 10^5 cells/dish | 10.0 × 10^5 cells/dish | 105% | 101% | 96.8% | 75% | inhibited | activity at 50 µg/mL (BHK-21 cells [1]; [8]): 66.1%; activity at 0.5 µg/mL (BHK-21 cells [1]; [9]): 92.7%; activity at 1 µg/mL (BHK-21 cells [1]; [10]): 91.7%; activity at 5 µg/mL (BHK-21 cells [1]; [11]): 84.6%; activity at 25 µg/mL (BHK-21 cells [1]; [12]): 66%; activity at 50 µg/mL (BHK-21 cells [1]; [13]): 41.7%; activity at 0.5 µg/mL (BHK-21 cells [1]; [14]): 98.5%; activity at 1 µg/mL (BHK-21 cells [1]; [15]): 96.5%; activity at 5 µg/mL (BHK-21 cells [1]; [16]): 96.9%; activity at 25 µg/mL (BHK-21 cells [1]; [17]): 86.9%; activity at 50 µg/mL (BHK-21 cells [1]; [18]): 40%; cell numbers (BHK-21 cells [2]; 2nd day): 8.2 × 10^5 cells/dish; cell numbers (BHK-21 cells [2]; 4th day): 12.6 × 10^5 cells/dish
3 | C[C@]12C=CC(=O)C=C1CC[C@@H]1[C@@H]2[C@@H](O)C[C@@]2(C)[C@H]1CC[C@]2(O)C(=O)CO [Prednisolone, prednisolone] | 1.20 × 10^5 cells/dish | 2.43 × 10^5 cells/dish | 2.51 × 10^5 cells/dish | 1.20 × 10^5 cells/dish | 2.45 × 10^5 cells/dish | 2.50 × 10^5 cells/dish | 1.09 × 10^5 cells/dish | 2.33 × 10^5 cells/dish | 2.48 × 10^5 cells/dish | 0.85 × 10^5 cells/dish | 1.49 × 10^5 cells/dish | 1.91 × 10^5 cells/dish | 0.73 × 10^5 cells/dish | 1.01 × 10^5 cells/dish | 0.98 × 10^5 cells/dish | 91.6% | 91.6% | 83.2% | 64.9% |  | activity at 50 µg/mL (BHK-21 cells [1]; [8]): 55.7%; activity at 0.5 µg/mL (BHK-21 cells [1]; [9]): 89.3%; activity at 1 µg/mL (BHK-21 cells [1]; [10]): 90.1%; activity at 5 µg/mL (BHK-21 cells [1]; [11]): 85.7%; activity at 25 µg/mL (BHK-21 cells [1]; [12]): 54.8%; activity at 50 µg/mL (BHK-21 cells [1]; [13]): 37.1%; activity at 0.5 µg/mL (BHK-21 cells [1]; [14]): 94.7%; activity at 1 µg/mL (BHK-21 cells [1]; [15]): 94.3%; activity at 5 µg/mL (BHK-21 cells [1]; [16]): 93.6%; activity at 25 µg/mL (BHK-21 cells [1]; [17]): 72.1%; activity at 50 µg/mL (BHK-21 cells [1]; [18]): 37%; cell numbers (BHK-21 cells [2]; 2nd day): 0.78 × 10^5 cells/dish; cell numbers (BHK-21 cells [2]; 4th day): 0.94 × 10^5 cells/dish
4 | CCCCC(=O)O[C@]1(C(=O)CO)[C@@H](C)C[C@H]2[C@@H]3CCC4=CC(=O)C=C[C@]4(C)[C@@]3(F)[C@@H](O)C[C@@]21C [betamethasone-17-valerate] |  |  |  |  |  |  |  |  |  |  |  |  |  |  |  |  |  |  |  | inhibited | 
5 | CCC(=O)OCC(=O)[C@@]1(OC(=O)CC)[C@@H](C)C[C@H]2[C@@H]3CCC4=CC(=O)C=C[C@]4(C)[C@@]3(F)[C@@H](O)C[C@@]21C [betamethasonedipropionate] |  |  |  |  |  |  |  |  |  |  |  |  |  |  |  |  |  |  |  | inhibited | 
6 | CCC(=O)O[C@]1(C(=O)CCl)[C@@H](C)C[C@H]2[C@@H]3CCC4=CC(=O)C=C[C@]4(C)[C@@]3(F)[C@@H](O)C[C@@]21C [clobetasol-17-propionate] |  |  |  |  |  |  |  |  |  |  |  |  |  |  |  |  |  |  |  | inhibited | denaturation of human fibroblastic nuclei and protoplasms ([3]; 25 μg/ml): caused human fibroblastic nuclei and protoplasms to denature
7 | C[C@]12CCC(=O)C=C1CC[C@@H]1[C@@H]2[C@@H](O)C[C@@]2(C)[C@H]1CC[C@]2(O)C(=O)CO [cortisol] |  |  |  |  |  |  |  |  |  |  |  |  |  |  |  |  |  |  |  |  | growth of incubated mouse fibroblasts (mouse fibroblasts): inhibited growth
8 | CCCC(=O)O[C@]1(C(=O)CO)CC[C@H]2[C@@H]3CCC4=CC(=O)CC[C@]4(C)[C@H]3[C@@H](O)C[C@@]21C [hydrocortisone-butylate] |  |  |  |  |  |  |  |  |  |  |  |  |  |  |  |  |  |  |  | inhibited | 
